What is called CC50 is the concentration that lowers cell viability or growth by half. The EC50 is the concentration giving half of the maximal effect.

The source made the active and inactive calls. The rule behind the calls is not given here. Where only a bound is given, the exact number is not on record here.

The nature of data set [1]: Cytotoxicity against African green monkey Vero cells infected in Pichinde virus AN 4763 by visual analysis. Type of data set: toxicity, cell-based. The conditions noted are these: chlorocebus sabaeus, Vero cells infected with Pichinde virus AN 4763.
Data set [2] concerns Pichinde virus. The experiment in a line: Antiviral activity against Pichinde virus AN 4763 infected in African green monkey Vero cells by visual analysis. Type of data set: functional, organism-based. The conditions noted are these: AN 4763, Vero.
Data set [3] in a line: Cytotoxicity against MDCK cells infected with influenza A virus California/7/2009(H1N1). Type of data set: toxicity, cell-based, Canis lupus familiaris. The conditions noted are these: dog.
The subject of data set [4] is Pichinde virus. The experiment in a line: Antiviral activity against Pichinde virus AN 4763 infected in African green monkey Vero cells by neutral red dye based analysis. Type of data set: functional, organism-based. The conditions noted are these: AN 4763, Vero.
The nature of data set [5]: Selectivity index, ratio of CC50 for cytotoxicity against African green monkey Vero cells infected with Pichinde virus AN 4763 by visual analysis to EC50 for antiviral activity against Pichinde virus AN 4763 infected in African green monkey Vero cells by visual analysis. Type of data set: toxicity, cell-based. The conditions noted are these: read-out: Ratio CC50/EC50.

Data set [6] can be described thus: Selectivity index, ratio of CC50 for cytotoxicity against African green monkey Vero cells infected with Pichinde virus AN 4763 by neutral red dye based analysis to EC50 for antiviral activity against Pichinde virus AN 4763 infected in African green monkey Vero cells by neutral red dye based analysis. The conditions noted are these: read-out: Ratio CC50/EC50. Type of data set: toxicity, cell-based.

Data set [7] can be described thus: Cytotoxicity against African green monkey Vero cells infected with Tacaribe virus TRVL11573 by neutral red dye based analysis. Type of data set: toxicity, cell-based. The conditions noted are these: chlorocebus sabaeus.
Data set [8] is described as follows: Cytotoxicity against African green monkey Vero cells infected in Pichinde virus AN 4763 by neutral red dye based analysis. Type of data set: toxicity, cell-based. The conditions noted are these: chlorocebus sabaeus, Vero cells infected with Pichinde virus AN 4763.
Data set [9] has as its system Influenza A virus. The experiment in a line: Antiviral activity against influenza A virus California/7/2009(H1N1) infected in MDCK cells. Type of data set: functional, organism-based.
The test system of data set [10] is Rift Valley fever virus. The experiment in a line: Antiviral activity against Rift Valley fever virus MP-12 infected in African green monkey Vero 76 cells by neutral red dye based analysis. Type of data set: functional, organism-based. The conditions noted are these: MP-12, Vero 76.
The subject of data set [11] is Rift Valley fever virus. The experiment in a line: Antiviral activity against Rift Valley fever virus MP-12 infected in African green monkey Vero 76 cells by visual analysis. Type of data set: functional, organism-based. The conditions noted are these: MP-12, Vero 76.
Data set [12] can be described thus: Selectivity index, ratio of CC50 for cytotoxicity against MDCK cells infected with influenza A virus California/7/2009(H1N1) to EC50 for antiviral activity against influenza A virus California/7/2009(H1N1) infected in MDCK cells. Type of data set: toxicity, cell-based. The conditions noted are these: dog; read-out: Ratio CC50/EC50.
Data set [13] can be described thus: Selectivity index, ratio of CC50 for cytotoxicity against African green monkey Vero 76 cells infected with Rift Valley fever virus MP-12 by visual analysis to EC50 for antiviral activity against Rift Valley fever virus MP-12 infected in African green monkey Vero 76 cells by visual analysis. Type of data set: toxicity, cell-based. The conditions noted are these: read-out: Ratio CC50/EC50.

Data set [14] is described as follows: Selectivity index, ratio of CC50 for cytotoxicity against African green monkey Vero cells infected with Tacaribe virus TRVL11573 by neutral red dye based analysis to EC50 for antiviral activity against Tacaribe virus TRVL11573 infected in African green monkey Vero cells by neutral red dye based analysis. Type of data set: toxicity, cell-based. The conditions noted are these: read-out: Ratio CC50/EC50.

For data set [15], the system named is Tacaribe virus. The experiment in a line: Antiviral activity against Tacaribe virus TRVL11573 infected in African green monkey Vero cells by visual analysis. Type of data set: functional, organism-based. The conditions noted are these: Mammarenavirus tacaribeense.
Data set [16] is described as follows: Cytotoxicity against African green monkey Vero 76 cells infected with Rift Valley fever virus MP-12 by visual analysis. Type of data set: toxicity, cell-based. The conditions noted are these: chlorocebus sabaeus.
The nature of data set [17]: Cytotoxicity against African green monkey Vero cells infected with Tacaribe virus TRVL11573 by visual analysis. The conditions noted are these: chlorocebus sabaeus. Type of data set: toxicity, cell-based.
Data set [18] deals with Tacaribe virus. The experiment in a line: Antiviral activity against Tacaribe virus TRVL11573 infected in African green monkey Vero cells by neutral red dye based analysis. Type of data set: functional, organism-based. The conditions noted are these: Mammarenavirus tacaribeense.
Data set [19] is described as follows: Selectivity index, ratio of CC50 for cytotoxicity against African green monkey Vero 76 cells infected with Rift Valley fever virus MP-12 by neutral red dye based analysis to EC50 for antiviral activity against Rift Valley fever virus MP-12 infected in African green monkey Vero 76 cells by neutral red dye based analysis. Type of data set: toxicity, cell-based. The conditions noted are these: read-out: Ratio CC50/EC50.

Data set [20] is described as follows: Cytotoxicity against African green monkey Vero 76 cells infected with Rift Valley fever virus MP-12 by neutral red dye based analysis. Type of data set: toxicity, cell-based. The conditions noted are these: chlorocebus sabaeus.
Data set [21] can be described thus: Selectivity index, ratio of CC50 for cytotoxicity against African green monkey Vero cells infected with Tacaribe virus TRVL11573 by visual analysis to EC50 for antiviral activity against Tacaribe virus TRVL11573 infected in African green monkey Vero cells by visual analysis. Type of data set: toxicity, cell-based. The conditions noted are these: read-out: Ratio CC50/EC50.

Data set [22] can be described thus: Selectivity index, ratio of CC50 for cytotoxicity against human HepG2.2.15 cells to EC50 for antiviral activity against HBV ayw1 infected in human HepG2.2.15 cells. The conditions noted are these: read-out: Ratio CC50/EC50. Type of data set: toxicity, cell-based.
Data set [23] can be described thus: Cytotoxicity against human HepG2.2.15 cells. Type of data set: toxicity, cell-based, HepG2 2.2.15.
The test system of another data set is Hepatitis B virus. The experiment in a line: Antiviral activity against HBV ayw1 infected in human HepG2.2.15 cells. Type of data set: functional, organism-based. The conditions noted are these: ayw1, HepG2.2.15.
The test system of data set [24] is Influenza A virus. The experiment in a line: Antiviral activity against influenza A virus H5N1. Type of data set: functional, organism-based.
Data set [25] concerns Tacaribe virus. The experiment in a line: Antiviral activity against Tacaribe virus. Type of data set: functional, organism-based. The conditions noted are these: Mammarenavirus tacaribeense.
The next data set deals with Human betaherpesvirus 5. The experiment in a line: Antiviral activity against Human betaherpesvirus 5. Type of data set: functional, organism-based.
Data set [26] has as its system Rift Valley fever virus. The experiment in a line: Antiviral activity against Rift Valley fever virus. Type of data set: functional, organism-based.
In a further data set the test system is Influenza B virus. The experiment in a line: Antiviral activity against influenza B virus. Type of data set: functional, organism-based.
Another data set has as its system Norovirus. The experiment in a line: Antiviral activity against Norovirus Genogroup 1 infected in human HG23 cells. The conditions noted are these: Genogroup 1, HG23. Type of data set: functional, organism-based.
Data set [27] is described as follows: Cytotoxicity against human HG23 cells infected with Norovirus Genogroup 1. Type of data set: toxicity, cell-based.
A short description of data set [28]: Selectivity index, ratio of CC50 for cytotoxicity against human HG23 cells infected with Norovirus Genogroup 1 to EC50 for antiviral activity against Norovirus Genogroup 1 infected in human HG23 cells. Type of data set: toxicity, cell-based. The conditions noted are these: read-out: Ratio CC50/EC50.

Take `NC(=O)c1ncn([C@@H]2O[C@H](CO)[C@@H](O)[C@H]2O)n1` [RIBAVIRIN]: the 50% cytotoxic concentration (CC50) in [1] was over 4090 µM; in data set [3] it was over 4100 µM; in data set [7], 3930 µM; in [8], over 3560 µM; in data set [16] it was over 4090 µM; in [17], over 4090 µM. This compound also returned a 50% cytotoxic concentration (CC50) in data set [20] of over 4090 µM. Also, the concentration for a half-maximal effect (EC50) was 45 µM in the data set on Pichinde virus [2]; 36.4 µM with Pichinde virus [4]; 21.9 µM with Influenza A virus [9]; 53 µM in the data set with Rift Valley fever virus [10]; 49 µM with Rift Valley fever virus [11]; 27.8 µM in the data set on Tacaribe virus [15]. The response with Tacaribe virus [18] was half-maximal at 31.1 µM (EC50). In addition, the selectivity ratio in data set [5] is over 91; in data set [6] it was over 98; in [12], over 670; in data set [13], over 83; in data set [14] it was 130; in data set [19] it was over 77. Also, in data set [21], the selectivity ratio was over 150.

As to `Nc1ccn([C@@H]2CS[C@H](CO)O2)c(=O)n1` [LAMIVUDINE], the selectivity ratio in [22] is over 99. This compound registered a CC50 in [23] of over 2 µM. Further, the EC50 in the data set on Hepatitis B virus is 0.02 µM.

`Nc1nc(F)cc2c1ncn2[C@@H]1C=C(CO)[C@@H](O)[C@H]1O`: the result in the data set with Influenza A virus [24], in the data set with Tacaribe virus [25], with Human betaherpesvirus 5, with Rift Valley fever virus [26] and in the data set with Influenza B virus was Active.

For the compound `C[C@@]1(O)[C@H](O)[C@@H](CO)O[C@H]1n1ccc(N)nc1=O`, the half-maximal effective concentration (EC50) in the data set on Norovirus worked out at 1.23 µM. Besides, in [27], the CC50 is over 25 µM. Also, the selectivity ratio in data set [28] was over 22.

The values are drawn from ChEMBL document CHEMBL5252611, “2- and 3-Fluoro-3-deaza-1',6'-isoneplanocin: Synthesis and antiviral properties (including Ebola and Marburg)” (Bioorg Med Chem Lett, 2023).
